Like-named read-outs stand apart in the source and are kept apart here.
Legend:
[1] = tested on: MDAMB231 breast cancer cell line; assay: In vitro antiproliferative assay (MTT assay), MDAMB231; assay type: cell-based; details: 48 hrs drug incubation, read-out: IC50 in micromolar, MDAMB231 (MTT assay)
Experimental: (§1) MTT assay is a simple and sensitive assay where, metabolic reducing activity of the cells is measured. The increase of this activity in time is taken as a parameter of cell growth. If treatment with a drug impairs this increase, the action is a consequence of growth inhibition, cell killing or both. […] All cell lines were cultured in a 37° C. incubator with a 5% CO2 environment. Compounds were dissolved in DMSO with a concentration of 0.1M (stock solution). Cells were seeded into 96-well plates at suitable plating efficiency.
(§2) Following plating efficiencies were standardized for MTT assay:
(§3) In the MTT procedure, the cells were plated in 96 well plates as per predetermined plating efficiency (Table1). The plates were then incubated for 24 hrs in 5% CO2 atmosphere at 37° C. Appropriate concentrations of the drugs were then added to the plate and further incubation was carried out for 48 hrs (in 5% CO2 atmosphere at 37° C.). The assay plate was then centrifuged twice at 3000 rpm for 3 mins and supernatant was then discarded. 100 ul of MTT solution (0.5 mg/ml) was then added to each well of the plate and it was further incubated for 4 hrs (in 5% CO2 atmosphere at 37° C.) Following 4 hr incubation, the plate was then centrifuged twice, and supernatant was aspirated off very carefully. 200 ul of DMSO was then added to each well to solubilize. MTT crystals and mixed well by shaking the plate. XY graph of log percent viability was then plotted against log drug concentration.

[2] = tested on: PC3 prostate cancer cell line; assay: In vitro antiproliferative assay (MTT assay), PC3; assay type: cell-based; details: 48 hrs drug incubation, read-out: IC50 in micromolar, PC3 (MTT assay)
Experimental: as §1, §2, §3

[3] = tested on: DU145 prostate cancer cell line; assay: In vitro antiproliferative assay (MTT assay), DU145; assay type: cell-based; details: 48 hrs drug incubation, read-out: IC50 in micromolar, DU145 (MTT assay)
Experimental: as §1, §2, §3

[4] = tested on: MDAMB231 breast cancer cell line; assay: Soft agar colony-formation assay, MDAMB231; assay type: cell-based; details: 1 week, Alamar Blue, read-out: IC50 in micromolar, MDAMB231 (Soft Agar Assay)
Experimental: (§4) The Soft Agar Colony-formation Assay is an anchorage-independent growth assay in soft agar, which is one of the most stringent assays for detecting malignant transformation of cells. For this assay, malignant cells are cultured with appropriate controls in soft agar medium for 1-2 weeks. Following this incubation period, formed colonies can either be analyzed morphologically using cell stain and quantifying the number of colonies formed.
(§5) Briefly, for Soft Agar Assay a mixture of 50 ul of 2× medium (taken appropriately as per cell line) and 50 ul of 1.2% Bacto Agar were plated on to each well of 96 well micro titer assay plate. 10 ul of cells (of specific plating efficiency pre standardized for respective cell line) were mixed with 20 ul of 2× medium and 30 ul of 0.8% of Bacto Agar and 1.6 ul of drug (of appropriate concentration) in a vial and transferred to the solidified pre layers of the assay plates. The cells were then allowed to grow and form colonies at 37° C. and 5% C02 for 1 week. An intermittent feeding with 50 ul of appropriate 2× medium was performed after 3 days of experimental set up. 16 ul of Alamar Blue (1.5 mg/ml) was then added to all the wells to quantify the developed colonies. The plates were incubated for 24 hrs at 37° C. Absorbance was then measured at 630 nm. XY graph of log Percent viability was then plotted against log drug concentration.
(§6) Following plating efficiencies were standardized for Soft Agar Assay: […]

[5] = tested on: PC3 prostate cancer cell line; assay: Soft agar colony-formation assay, PC3; assay type: cell-based; details: 1 week, Alamar Blue, read-out: IC50 in micromolar, PC3 (Soft Agar Assay)
Experimental: as §4, §5, §6

[6] = tested on: PC3 spheres (cancer stem cells); assay: In vitro sphere-forming assay (cancer stem cells), PC3 in Prostosphere media; details: for 3D sphere count of PC3 in Prostosphere media: 2000 cells/well, n = 6 ± S.D; for viability at 250 µM: read-out: % Viability of spheres (PC3), 250 uM; for viability at 0.0025 µM: read-out: % Viability of spheres (PC3), 0.0025 uM
Excerpt: In Vitro Sphere-forming Assay: Sphere assay measures the ability of cancer stem cells (CSCs) to form spheres in specially designed serum-free medium.
Materials and Reagents:50×B27 Supplement (Life Technologies, Invitrogen, Catlog No.: 17502-044), Fibroblast Growth Factor (FGF) (Sigma-Aldrich, Catlog No.: F029125), Epidermal Growth Factor (EGF) (Sigma-Aldrich, Catlog No.: E9644), Insulin (Sigma, Catlog No.: 19278), Dulbecco's Modified Eagle Medium/F12 (HiMedia Catlog No.: AL139-6), Dulbecco's Phosphate Buffered Saline (HiMedia Catlog No.: TL1006), Trypan Blue (TC193), Prostate Epithelial Media (LONZA, Catlog No.: CC-3166) MEGM (LONZA, Catlog No.: CC-3051), Heparin (Sigma, Catlog No.: H3393), Penstrep (HiMedia, Catlog No.: A002)
Prostosphere Media Preparation (For 100 mL): 1 g methyl cellulose autoclaved with magnetic stirrer, 100 mL plain media (Prostate Epithelial Basal Medium) was added and dissolved, under magnetic stirring. After complete dissolution, Insulin—40 μL, B27—2 mL, EGF—80 μL, Penstrep—1 ml was added.
Procedure—The cells were trypsinised and made into single-cell suspension by passing through cell strainers (100 μl and 40 μl, respectively), The cells were diluted at a concentration of 2000 cells/100 μL and suspended in either Mammosphere (for breast cell lines) or Prostosphere (for prostate cell lines). 100 μL of this suspension was added into each well of 96-well suspension plates and incubated at 37 C, 50 CO2 for 24 hrs. Appropriate concentrations of the drugs (2 L) were added into respective wells with 100 μL of stem cell culture medium. Plates were incubated at 37° C., 50% CO2 for 72 hrs. After incubation, 2.5 μL of the respective drug concentration and 50 μL of stem cell culture medium were added into each well and the plates were further incubated at 37° C., 500 CO2 for 72 hrs. 3 μL of the respective drug concentration was added with 50 μL of stem cell culture medium again after incubation and plates were reincubated for 72 hrs at 37° C., 500 CO2. Number of primary spheres formed for each concentration were counted. The spheres were converted to 0 viability of spheres compared to untreated (Growth Control with DMSO, GCD).

[7] = tested on: MDAMB231 spheres (cancer stem cells); assay: In vitro sphere-forming assay (cancer stem cells), MDAMB231 in Mammosphere media; details: for 3D sphere count of MDAMB231 in Mammosphere media: 2000 cells/well, n = 6 ± S.D; for viability at 0.025 µM / viability at 0.25 µM / viability at 2.5 µM / viability at 25 µM / viability at 250 µM / viability at 0.0025 µM: Homo sapiens
[8] = read-out: % Viability of spheres (PC3), 0.025 uM, GCD = 100% viability
[9] = read-out: % Viability of spheres (PC3), 0.25 uM, GCD = 100% viability
[10] = read-out: % Viability of spheres (PC3), 2.5 uM, GCD = 100% viability
[11] = read-out: % Viability of spheres (PC3), 25 uM, GCD = 100% viability
[12] = MDA-MB-231, read-out: % Viability of spheres (MDAMB231)
[13] = read-out: % Viability of spheres (PC3)
[14] = Homo sapiens, MDA-MB-231, 168 h

| Compound | IC50 ([2]; 48 h) [µM] | 3D sphere count of PC3 in Prostosphere media ([6]; 0.025 uM) | 3D sphere count of PC3 in Prostosphere media ([6]; 0.25 uM) | 3D sphere count of PC3 in Prostosphere media ([6]; 2.5 uM) | 3D sphere count of PC3 in Prostosphere media ([6]; 25 uM) | 3D sphere count of PC3 in Prostosphere media ([6]; 250 uM) | viability at 0.025 µM [6, 8] [%] | viability at 0.25 µM [6, 9] [%] | viability at 2.5 µM [6, 10] [%] | viability at 25 µM [6, 11] [%] | 3D sphere count of MDAMB231 in Mammosphere media ([7]; 0.025 uM) | 3D sphere count of MDAMB231 in Mammosphere media ([7]; 0.25 uM) | 3D sphere count of MDAMB231 in Mammosphere media ([7]; 2.5 uM) | 3D sphere count of MDAMB231 in Mammosphere media ([7]; 25 uM) | 3D sphere count of MDAMB231 in Mammosphere media ([7]; 250 uM) | viability at 0.025 µM [7, 12] [%] | viability at 0.25 µM [7, 12] [%] | viability at 2.5 µM [7, 12] [%] | viability at 25 µM [7, 12] [%] | IC50 [4, 14] [µM] | further results |
| --- | --- | --- | --- | --- | --- | --- | --- | --- | --- | --- | --- | --- | --- | --- | --- | --- | --- | --- | --- | --- | --- |
| CCOC(=O)N1CCN(CCCCCCOc2c3c(c(-c4ccc5c(c4)OCO5)c4cc(OC)c(OC)cc24)C(=O)OC3)CC1 [Formula III, ethyl 4-(6-(9-(benzo[d][1,3]dioxol-5-yl)-1,3-dihydro-6,7-dimethoxy-1-oxonaphtho[2,3-c]furan-4-yloxy)hexyl)piperazine-1-carboxylate] | 2.36 | 49(±3) | 38(±4) | 29(±4) | 23(±3) | 0(±0) | 63 | 49 | 37 | 29 | 41(±2) | 35(±3) | 30(±4) | 17(±4) | 0(±0) | 53 | 45 | 39 | 22 | – | IC50 [1]: 6.68 µM; IC50 [3]: 5.41 µM; IC50 [4]: 2.53 µM; IC50 [5]: 4.84 µM; viability at 250 µM ([6]; GCD = 100% viability): 0%; viability at 250 µM [7, 12]: 0% |
| Cl.c1ccc2c(-c3ccc4c(c3)OCO4)ccc(OCCCCCCN3CCOCC3)c2c1 [Formula V, 4-(6-(1-(benzo[d][1,3]dioxol-5-yl)naphthalen-4-yloxy)hexyl)morpholine hydrochloride] | – | 58(±3) | 49(±3) | 41(±2) | 30(±5) | 0(±0) | – | – | – | – | 41(±5) | 39(±3) | 27(±3) | 19(±4) | 0(±0) | – | – | – | – | – | IC50 ([1]; hydrochloride): 9.25 µM; IC50 ([2]; hydrochloride): 6.03 µM; IC50 ([3]; hydrochloride): 9.77 µM; IC50 ([4]; hydrochloride): 2.21 µM; IC50 ([5]; hydrochloride): 3.98 µM; viability at 0.025 µM [6, 13]: 67%; viability at 0.25 µM [6, 13]: 57%; viability at 2.5 µM [6, 13]: 48%; viability at 25 µM [6, 13]: 35%; viability at 0.25 µM ([7]; MDA-MB-231, read-out: % Viability of spheres (MDAMB231), 0.25 uM, GCD = 100% viability): 47%; viability at 2.5 µM ([7]; MDA-MB-231, read-out: % Viability of spheres (MDAMB231), 2.5 uM, GCD = 100% viability): 33%; viability at 25 µM ([7]; MDA-MB-231, read-out: % Viability of spheres (MDAMB231), 25 uM, GCD = 100% viability): 23% |
| c1ccc2c(-c3ccc4c(c3)OCO4)ccc(OCCCCCCN3CCOCC3)c2c1 [Formula IV, 4-(6-(1-(benzo[d][1,3]dioxol-5-yl)naphthalen-4-yloxy)hexyl)morpholine] | 3.79 | 44(±3) | 35(±3) | 32(±3) | 22(±3) | 0(±0) | 59 | 47 | 43 | 29 | 40(±2) | 35(±2) | 25(±2) | 11(±2) | 0(±0) | 50 | 44 | 31 | 13 | 2.59 | IC50 [1]: 3.86 µM; IC50 [3]: 3.16 µM; IC50 ([5]; 168 h): 7.5 µM; viability at 250 µM ([6]; GCD = 100% viability): 0%; viability at 250 µM [7, 12]: 0% |
| c1cc2c(cc1-c1ccc(OCCCCCCNC3CCCCC3)c3c1CCCC3)OCO2 [Formula XVIII, N-(6-(5-(benzo[d][1,3]dioxol-5-yl)-1,2,3,4-tetrahydronaphthalen-8-yloxy)hexyl) cyclohexanamine] | 0.32 | 43(±5) | 39(±3) | 27(±4) | 19(±3) | – | 54 | 49 | 34 | 24 | 49(±4) | 39(±2) | 28(±3) | 19(±1) | – | 58 | 45 | 34 | 24 | 4.18 | IC50 ([1]; Homo sapiens, MDA-MB-231, 48 h): 0.398 µM; IC50 ([3]; Homo sapiens, DU-145, 48 h): 0.348 µM; IC50 ([5]; 168 h): 2.63 µM; 3D sphere count of PC3 in Prostosphere media ([6]; 0.0025 uM): 50(±4); viability at 0.0025 µM ([6]; GCD = 100% viability): 63%; 3D sphere count of MDAMB231 in Mammosphere media ([7]; 0.0025 uM): 54(±3); viability at 0.0025 µM [7, 12]: 65% |
| O=C1OCc2c1c(-c1ccc3c(c1)OCO3)c1cc3c(cc1c2OCCCCN1CCOCC1)OCO3 [Formula XIII, 4-(4-morpholinobutoxy)-9-(benzo[d][1,3]dioxol-5-yl)-6,7-methylenedioxynaphtho[2,3-c]furan-1(3H)-one] | 8.83 | 44(±4) | 35(±3) | 32(±3) | 27(±3) | – | 55 | 44 | 40 | 34 | 40(±3) | 36(±2) | 30(±4) | 21(±3) | – | 50 | 45 | 38 | 26 | 3.03 | IC50 ([1]; Homo sapiens, MDA-MB-231, 48 h): 7.29 µM; IC50 ([3]; Homo sapiens, DU-145, 48 h): 8.85 µM; IC50 ([5]; 168 h): 3.84 µM; 3D sphere count of PC3 in Prostosphere media ([6]; 0.0025 uM): 49(±3); viability at 0.0025 µM ([6]; GCD = 100% viability): 62%; 3D sphere count of MDAMB231 in Mammosphere media ([7]; 0.0025 uM): 49(±3); viability at 0.0025 µM [7, 12]: 62% |

Reference: patent US12459930B2, “Compounds for the inhibition of unregulated cell growth” (GODAVARI BIOREFINERIES LIMITED, priority 2018, dated 2025)
